Strand notation (5' to 3'): a small letter for the sugar, then the base; units joined by * are phosphorothioate-linked, units joined directly phosphodiester-linked; [ ] holds rarer units or linkages, { } end groups; capitals alone tell only the bases. k = constrained ethyl (cEt); [5mC] = 5-methylcytosine; d = 2'-deoxy (DNA)
System: human SMAD7 mRNA
Assay: Antisense inhibition of human SMAD7 mRNA expression in Hep3B cells by 3-10-3 cEt gapmers, 10,000 nM, electroporation (Example 2)
Assay type: cell-based
Details: Hep3B cells, 10,000 nM antisense oligonucleotide, electroporation, approximately 24 hours, RT-PCR primer probe set RTS5062, relative to untreated control cells
Procedure, shortened: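 qRT-PCR (RTS5062) of SMAD7 mRNA, normalised to RIBOGREEN total RNA, gave percent inhibition relative to untreated controls. Hep3B cells at 20,000 per well received 10,000 nM oligonucleotide by electroporation, with ~24 h treatment.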

Substance | % Inhibition [%]
800038 (kT*kG*k[5mC]*dT*d[5mC]*d[5mC]*dT*d[5mC]*d[5mC]*d[5mC]*dT*d[5mC]*dG*k[5mC]*kT*kG; antisense) [compound 800038] | 2
800049 (antisense kA*kA*k[5mC]*dA*dA*dA*d[5mC]*d[5mC]*dT*dG*dG*d[5mC]*d[5mC]*kT*kG*kG) [compound 800049] | 7
800050 (antisense kG*k[5mC]*kT*dT*dA*dT*dT*dT*dT*d[5mC]*d[5mC]*d[5mC]*dA*kA*kT*kT) [compound 800050] | 10
800051 (antisense k[5mC]*kA*kG*d[5mC]*dA*d[5mC]*dA*dT*d[5mC]*d[5mC]*dA*d[5mC]*d[5mC]*k[5mC]*kT*kT) [compound 800051] | 20
800052 (antisense k[5mC]*k[5mC]*k[5mC]*dT*d[5mC]*dT*dT*d[5mC]*d[5mC]*dG*dG*dG*dA*kG*kG*k[5mC]) [compound 800052] | 0
800053 (antisense k[5mC]*kT*kA*d[5mC]*dA*d[5mC]*d[5mC]*dA*dA*dA*dG*dA*d[5mC]*k[5mC]*kT*kG) [compound 800053] | 63
800054 (antisense kG*k[5mC]*kT*dA*d[5mC]*dA*d[5mC]*d[5mC]*dA*dA*dA*dG*dA*k[5mC]*k[5mC]*kT) [compound 800054] | 62
800055 (antisense kA*kT*kA*dA*dA*d[5mC]*dT*dT*dG*dT*dG*dA*dG*k[5mC]*kG*k[5mC]) [compound 800055] | 8
800056 (antisense kT*kG*k[5mC]*dT*dA*dA*dT*dA*dA*dA*d[5mC]*dT*dT*kG*kT*kG) [compound 800056] | 7
800057 (antisense kT*kT*k[5mC]*dA*d[5mC]*dT*dT*dG*dT*dT*dT*d[5mC]*dT*kG*k[5mC]*kA) [compound 800057] | 46
800058 (antisense kT*k[5mC]*kA*dT*d[5mC]*dA*dG*dG*d[5mC]*dA*dT*dT*d[5mC]*kA*k[5mC]*kT) [compound 800058] | 51
800069 (antisense k[5mC]*kA*kT*dG*dG*d[5mC]*dG*dG*dA*dA*dG*dA*dT*kG*kG*kG) [compound 800069] | 25
800070 (antisense k[5mC]*k[5mC]*kA*dT*dG*dG*d[5mC]*dG*dG*dA*dA*dG*dA*kT*kG*kG) [compound 800070] | 9
800071 (antisense kT*kG*kT*dA*dT*dT*dT*dG*dT*dT*dA*dA*d[5mC]*kA*kA*kA) [compound 800071] | 2
800072 (antisense kG*kA*k[5mC]*dT*dT*dG*dG*dG*dA*d[5mC]*d[5mC]*dA*dT*kA*kA*kA) [compound 800072] | 0
800073 (antisense kT*kA*kA*dG*dT*dA*dG*dG*dA*dG*d[5mC]*d[5mC]*dA*kG*k[5mC]*kG) [compound 800073] | 39
800074 (antisense kG*kG*kG*d[5mC]*dA*dT*dT*d[5mC]*dT*dG*dA*d[5mC]*dT*k[5mC]*k[5mC]*kT) [compound 800074] | 33
800075 (antisense kT*kA*kA*dT*dT*dT*dT*d[5mC]*d[5mC]*dT*d[5mC]*dA*dA*k[5mC]*kA*kG) [compound 800075] | 55
800076 (antisense k[5mC]*kG*k[5mC]*dT*dT*d[5mC]*d[5mC]*d[5mC]*dT*dA*d[5mC]*dA*d[5mC]*kA*kG*kT) [compound 800076] | 25
800077 (antisense k[5mC]*k[5mC]*kT*dT*dA*dA*d[5mC]*dA*dA*dA*dG*d[5mC]*dT*kT*k[5mC]*k[5mC]) [compound 800077] | 36
800078 (antisense kA*k[5mC]*k[5mC]*dT*dT*dA*dA*d[5mC]*dA*dA*dA*dG*d[5mC]*kT*kT*k[5mC]) [compound 800078] | 51

Same assay, conditions: Hep3B cells, electroporation with 10,000 nM antisense oligonucleotide, approximately 24 hours, SMAD7 mRNA by RT-PCR (RTS5062), relative to untreated control cells

Substance | % Inhibition [%]
800039 (kG*kG*kT*dT*dA*dA*dT*dG*dG*d[5mC]*d[5mC]*d[5mC]*dA*kG*k[5mC]*k[5mC]; antisense) [compound 800039] | 27
800040 (k[5mC]*kG*k[5mC]*d[5mC]*dA*dG*d[5mC]*dA*dA*dT*dG*dT*dG*k[5mC]*kT*kG; antisense) [compound 800040] | 15
800041 (kG*k[5mC]*k[5mC]*dA*d[5mC]*d[5mC]*dT*dA*dG*dG*d[5mC]*dA*dA*kG*kG*kG; antisense) [compound 800041] | 0
800042 (kT*kG*kT*d[5mC]*dA*dG*d[5mC]*d[5mC]*dA*d[5mC]*d[5mC]*dT*dA*kG*kG*k[5mC]; antisense) [compound 800042] | 0
800043 (kT*kG*k[5mC]*d[5mC]*dA*dG*dG*d[5mC]*d[5mC]*dT*dG*dT*d[5mC]*kA*kG*k[5mC]; antisense) [compound 800043] | 31
800044 (k[5mC]*k[5mC]*kT*dG*dA*dG*dA*dT*d[5mC]*dG*dA*dG*dG*kT*kG*k[5mC]; antisense) [compound 800044] | 18
800045 (kG*kA*kG*dG*dA*dG*d[5mC]*dA*dA*dG*dG*dG*dA*kG*kT*kG; antisense) [compound 800045] | 59
800046 (kG*kG*k[5mC]*d[5mC]*dA*dA*d[5mC]*dA*dG*dG*dA*dG*dG*kA*kG*kG; antisense) [compound 800046] | 42
800047 (antisense kA*k[5mC]*k[5mC]*d[5mC]*dA*d[5mC]*dT*dG*dA*dA*dA*d[5mC]*d[5mC]*kT*kG*kG) [compound 800047] | 28
800059 (antisense kA*kA*kA*dA*d[5mC]*dA*dA*dG*dA*d[5mC]*dA*dG*dG*kG*kA*k[5mC]) [compound 800059] | 31
800060 (antisense k[5mC]*k[5mC]*k[5mC]*d[5mC]*dA*dA*dA*dA*dG*d[5mC]*dT*d[5mC]*d[5mC]*kA*k[5mC]*kA) [compound 800060] | 5
800061 (antisense k[5mC]*k[5mC]*k[5mC]*dA*dA*dA*dT*dG*d[5mC]*d[5mC]*dT*dG*d[5mC]*k[5mC]*k[5mC]*k[5mC]) [compound 800061] | 44
800062 (antisense k[5mC]*k[5mC]*k[5mC]*d[5mC]*dA*dA*dG*d[5mC]*dT*dG*dG*d[5mC]*d[5mC]*kT*kT*k[5mC]) [compound 800062] | 25
800063 (antisense kG*k[5mC]*k[5mC]*dA*dT*dA*d[5mC]*dA*dA*dA*dT*dG*dT*kG*k[5mC]*kA) [compound 800063] | 0
800064 (antisense kA*kT*kG*dG*dA*dG*dG*dT*dG*d[5mC]*d[5mC]*d[5mC]*dG*kT*k[5mC]*kA) [compound 800064] | 0
800065 (antisense kT*kT*kA*dA*dG*dT*dA*dG*d[5mC]*dA*dG*d[5mC]*d[5mC]*kA*kG*kT) [compound 800065] | 55
800067 (antisense kA*kG*kG*dA*d[5mC]*d[5mC]*dT*dG*dG*dG*dA*dA*d[5mC]*k[5mC]*k[5mC]*kA) [compound 800067] | 51
800068 (antisense kA*k[5mC]*kA*d[5mC]*dT*dA*dA*d[5mC]*dT*dG*dG*d[5mC]*dT*k[5mC]*k[5mC]*kA) [compound 800068] | 34
800079 (antisense kT*kA*k[5mC]*d[5mC]*dT*dT*dA*dA*d[5mC]*dA*dA*dA*dG*k[5mC]*kT*kT) [compound 800079] | 61

From patent US10517889B2, “Modulators of SMAD7 expression” (Ionis Pharmaceuticals, Inc., priority 2017, dated 2019)
